In patent US20060058398A1, “Medicinal compositions containing vitamin k's as nerve growth factor potentiator and utilization thereof” (Hisamitsu Pharmaceutical Co., Inc., priority 2002, published 2006):
Read-outs that look alike come from different tables or passages of the source.

Assays:
Assay type in all cases: cell-based
PCD12 cells [1] = assay: Effect of each inhibitor on neurite elongation potentiated by vitamin K's; details: 10 μM PD98059 pretreatment, 48 hours incubation (FIG. 4)
Experimental: In order to study the action mechanism of vitamin K's, influence of MAPK kinase inhibitor (PD98059), protein kinase A (PKA) inhibitor, and protein kinase C (PKC) inhibitor (chelerythrine chloride) on the effects for potentiating neurite elongation of vitamin K's in PCD12 cells were studied. Pre-incubation of cells was carried out for 1 hour in the presence or in the absence of the inhibitor before treatment of NGF or vitamin K compound. After 48 hours of incubation, the ratio of cells having neurites was examined.

PCD12 cells [2] = assay: Bioassay for neurite elongation (potentiation of NGF activity); details: for number of cells having neurites (morphological change): 100 μg/ml together with NGF (10 ng/ml) (FIG. 3); for effect of potentiating neurite elongation compared with the negative control group added with NGF 10 ng/ml: 100 μg/ml vitamin K, 48 hours incubation, ratio of cells having neurites (FIG. 1); for effect of potentiating neurite elongation in PCD12 cells: 100 μg/ml, in the presence of low dose of NGF (0-50 ng/ml) (FIG. 1)
Experimental: Cells (PCD12 cells) were harvested and plated on a complete medium of collagen-coating tissue incubation dish in the density of 1.3×10^4 cells/cm^2. […] After 48 hours of incubation, the ratio of cells having neurites was examined using a phase-contrast microscope under ×200 magnification. […] Each measurement in the data is the mean value calculated from examining random 6 […] duplicate experiments, whereby at least 100 cells/point was counted for calculation.

PCD12 cells [3] = tested on: PCD12 cells
Experimental: Cells (PCD12 cells) were harvested and plated on a complete medium of collagen-coating tissue incubation dish in the density of 1.3×10^4 cells/cm^2. After 24 hours, NGF (0-50 ng/ml) and 100 μg/ml (the maximum concentration wherein toxicity against PCD12 cells is not observed) of vitamin K1 or vitamin K2 (n=4) were added to the cells.

## COc1cccc(-c2cc(=O)c3ccccc3o2)c1N [PD98059]
PCD12 cells [1]
  inhibition of the potentiation of vitamin K's: almost completely inhibited

## CC1=C(C/C=C(\C)CCC[C@H](C)CCC[C@H](C)CCCC(C)C)C(=O)c2ccccc2C1=O [vitamin K1, phylloquinone]
PCD12 cells [2]
  number of cells having neurites (morphological change): remarkably increased
  effect of potentiating neurite elongation compared with the negative control group added with NGF 10 ng/ml: about 1.8 times
  effect of potentiating neurite elongation in PCD12 cells: confirmed
PCD12 cells [3]; rat
  maximum concentration wherein toxicity against PCD12 cells is not observed: 100 µg/mL

## menaquinone [vitamin K2]
PCD12 cells [2]
  number of cells having neurites (morphological change): remarkably increased
  effect of potentiating neurite elongation compared with the negative control group added with NGF 10 ng/ml: about 2.4 times
  effect of potentiating neurite elongation in PCD12 cells: confirmed
PCD12 cells [3]
  maximum concentration wherein toxicity against PCD12 cells is not observed: 100 µg/mL
